In US8969516B2, “Method of hydrolysis of peptide bond” (priority 2006, dated 2015):

Assay: MALDI-TOF screening of Ni^2+ dependent hydrolysis in a combinatorial peptide library
Type: physicochemical
Settings: Ni^2+ 2 mM, pH 8.2, 10 mM Tris, score=24/tm
In short: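 Sublibraries of Ac-Gly-Ala-Ser/Thr-X-His-Z-Lys-Phe-Leu-NH2, randomized at Z and fixed at X, were hydrolyzed at 1 mM total peptide with 2 mM Ni2+ in 10 mM Tris, pH 8.2, at 37 °C or 45 °C. Cleavage was scored visually in MALDI-TOF spectra at 2, 4, 6 and 8 h.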

[1] = CH3CO-Gly-Ala-Ser-X-His-Z-Lys-Phe-Leu-NH2 library, 37° C.
[2] = CH3CO-Gly-Ala-Ser-X-His-Z-Lys-Phe-Leu-NH2 library, 45° C.
[3] = CH3CO-Gly-Ala-Thr-X-His-Z-Lys-Phe-Leu-NH2 library, 37° C.
[4] = CH3CO-Gly-Ala-Thr-X-His-Z-Lys-Phe-Leu-NH2 library, 45° C.

With Ac-GASRHPKFL-NH2 [SRHP] the “hydrolysis score from MALDI-TOF screening” value (from here on “hydrolysis score”) [1] was 0 (a score of 0 if no trace of the product of hydrolysis was seen after 8 hours of incubation) and the “hydrolysis score” value [2] was 0 (a score of 0 if no trace of the product of hydrolysis was seen after 8 hours of incubation).
With Ac-GASSHNKFL-NH2 [SSHN] the “hydrolysis score” value [1] was 0 (a score of 0 if no trace of the product of hydrolysis was seen after 8 hours of incubation) and the “hydrolysis score” value [2] was 0 (a score of 0 if no trace of the product of hydrolysis was seen after 8 hours of incubation).
In the case of Ac-GASVHVKFL-NH2 [SVHV], the “hydrolysis score” value [1] is reported as 0 (a score of 0 if no trace of the product of hydrolysis was seen after 8 hours of incubation) and the “hydrolysis score” value [2] is reported as 3 (a score of 3 for detection at 8 hours).
In the case of Ac-GATMHFKFL-NH2 [TMHF], the “hydrolysis score” value [3] is reported as 0 (a score of 0 if no trace of the product of hydrolysis was seen after 8 hours of incubation) and the “hydrolysis score” value [4] is reported as 0 (a score of 0 if no trace of the product of hydrolysis was seen after 8 hours of incubation).
In the case of Ac-GATWHRKFL-NH2 [TWHR], the “hydrolysis score” value [3] is reported as 3 (a score of 3 for detection at 8 hours) and the “hydrolysis score” value [4] is reported as 4 (a score of 4 for detection at 6 hours).
With Ac-GATNHRKFL-NH2 [TNHR] the “hydrolysis score” value [3] was 0 (a score of 0 if no trace of the product of hydrolysis was seen after 8 hours of incubation) and the “hydrolysis score” value [4] was 3 (a score of 3 for detection at 8 hours).
In the case of Ac-GATGHSKFL-NH2 [TGHS], the “hydrolysis score” value [3] is reported as 0 (a score of 0 if no trace of the product of hydrolysis was seen after 8 hours of incubation) and the “hydrolysis score” value [4] is reported as 0 (a score of 0 if no trace of the product of hydrolysis was seen after 8 hours of incubation).
In the case of Ac-GATNHSKFL-NH2 [TNHS], the “hydrolysis score” value [3] is reported as 0 (a score of 0 if no trace of the product of hydrolysis was seen after 8 hours of incubation) and the “hydrolysis score” value [4] is reported as 0 (a score of 0 if no trace of the product of hydrolysis was seen after 8 hours of incubation).
For Ac-GASQHHKFL-NH2 [SQHH], the “hydrolysis score” value [1] was 0 (a score of 0 if no trace of the product of hydrolysis was seen after 8 hours of incubation) and the “hydrolysis score” value [2] was 0 (a score of 0 if no trace of the product of hydrolysis was seen after 8 hours of incubation).
In the case of Ac-GATYHPKFL-NH2 [TYHP], the “hydrolysis score” value [3] is reported as 0 (a score of 0 if no trace of the product of hydrolysis was seen after 8 hours of incubation) and the “hydrolysis score” value [4] is reported as 0 (a score of 0 if no trace of the product of hydrolysis was seen after 8 hours of incubation).
With Ac-GATPHDKFL-NH2 [TPHD] the “hydrolysis score” value [4] was 0 (a score of 0 if no trace of the product of hydrolysis was seen after 8 hours of incubation).
With Ac-GATNHYKFL-NH2 [TNHY] the “hydrolysis score” value [3] was 0 (a score of 0 if no trace of the product of hydrolysis was seen after 8 hours of incubation) and the “hydrolysis score” value [4] was 0 (a score of 0 if no trace of the product of hydrolysis was seen after 8 hours of incubation).
With Ac-GASPHFKFL-NH2 [SPHF] the “hydrolysis score” value [1] was 0 (a score of 0 if no trace of the product of hydrolysis was seen after 8 hours of incubation) and the “hydrolysis score” value [2] was 0 (a score of 0 if no trace of the product of hydrolysis was seen after 8 hours of incubation).
With Ac-GASIHKKFL-NH2 [SIHK] the “hydrolysis score” value [1] was 3 (a score of 3 for detection at 8 hours) and the “hydrolysis score” value [2] was 4 (a score of 4 for detection at 6 hours).
For Ac-GASTHQKFL-NH2 [STHQ], the “hydrolysis score” value [1] was 0 (a score of 0 if no trace of the product of hydrolysis was seen after 8 hours of incubation) and the “hydrolysis score” value [2] was 0 (a score of 0 if no trace of the product of hydrolysis was seen after 8 hours of incubation).
For Ac-GASLHHKFL-NH2 [SLHH], the “hydrolysis score” value [1] was 0 (a score of 0 if no trace of the product of hydrolysis was seen after 8 hours of incubation) and the “hydrolysis score” value [2] was 0 (a score of 0 if no trace of the product of hydrolysis was seen after 8 hours of incubation).
In the case of Ac-GASGHSKFL-NH2 [SGHS], the “hydrolysis score” value [1] is reported as 0 (a score of 0 if no trace of the product of hydrolysis was seen after 8 hours of incubation) and the “hydrolysis score” value [2] is reported as 0 (a score of 0 if no trace of the product of hydrolysis was seen after 8 hours of incubation).
With Ac-GASQHVKFL-NH2 [SQHV] the “hydrolysis score” value [1] was 0 (a score of 0 if no trace of the product of hydrolysis was seen after 8 hours of incubation) and the “hydrolysis score” value [2] was 4 (a score of 4 for detection at 6 hours).
With Ac-GATWHWKFL-NH2 [TWHW] the “hydrolysis score” value [3] was 3 (a score of 3 for detection at 8 hours) and the “hydrolysis score” value [4] was 4 (a score of 4 for detection at 6 hours).
In the case of Ac-GASWHIKFL-NH2 [SWHI], the “hydrolysis score” value [1] is reported as 6 (a score of 6 for detection at 4 hours) and the “hydrolysis score” value [2] is reported as 12 (a score of 12, if it was seen to be partially hydrolysed at 2 hours).
For Ac-GATPHSKFL-NH2 [TPHS], the “hydrolysis score” value [4] was 0 (a score of 0 if no trace of the product of hydrolysis was seen after 8 hours of incubation).
With Ac-GASVHPKFL-NH2 [SVHP] the “hydrolysis score” value [1] was 0 (a score of 0 if no trace of the product of hydrolysis was seen after 8 hours of incubation) and the “hydrolysis score” value [2] was 0 (a score of 0 if no trace of the product of hydrolysis was seen after 8 hours of incubation).
In the case of Ac-GASSHLKFL-NH2 [SSHL], the “hydrolysis score” value [1] is reported as 6 (a score of 6 for detection at 4 hours) and the “hydrolysis score” value [2] is reported as 6 (a score of 6 for detection at 4 hours).
In the case of Ac-GATKHWKFL-NH2 [TKHW], the “hydrolysis score” value [3] is reported as 6 (a score of 6 for detection at 4 hours) and the “hydrolysis score” value [4] is reported as 12 (a score of 12, if it was seen to be partially hydrolysed at 2 hours).
With Ac-GATMHVKFL-NH2 [TMHV] the “hydrolysis score” value [3] was 0 (a score of 0 if no trace of the product of hydrolysis was seen after 8 hours of incubation) and the “hydrolysis score” value [4] was 0 (a score of 0 if no trace of the product of hydrolysis was seen after 8 hours of incubation).
For Ac-GATNHVKFL-NH2 [TNHV], the “hydrolysis score” value [3] was 0 (a score of 0 if no trace of the product of hydrolysis was seen after 8 hours of incubation) and the “hydrolysis score” value [4] was 0 (a score of 0 if no trace of the product of hydrolysis was seen after 8 hours of incubation).
In the case of Ac-GASLHGKFL-NH2 [SLHG], the “hydrolysis score” value [1] is reported as 0 (a score of 0 if no trace of the product of hydrolysis was seen after 8 hours of incubation) and the “hydrolysis score” value [2] is reported as 0 (a score of 0 if no trace of the product of hydrolysis was seen after 8 hours of incubation).
With Ac-GATMHPKFL-NH2 [TMHP] the “hydrolysis score” value [3] was 0 (a score of 0 if no trace of the product of hydrolysis was seen after 8 hours of incubation) and the “hydrolysis score” value [4] was 0 (a score of 0 if no trace of the product of hydrolysis was seen after 8 hours of incubation).
With Ac-GASSHVKFL-NH2 [SSHV] the “hydrolysis score” value [1] was 3 (a score of 3 for detection at 8 hours) and the “hydrolysis score” value [2] was 4 (a score of 4 for detection at 6 hours).
For Ac-GASAHNKFL-NH2 [SAHN], the “hydrolysis score” value [1] was 0 (a score of 0 if no trace of the product of hydrolysis was seen after 8 hours of incubation) and the “hydrolysis score” value [2] was 0 (a score of 0 if no trace of the product of hydrolysis was seen after 8 hours of incubation).
For Ac-GASNHVKFL-NH2 [SNHV], the “hydrolysis score” value [1] was 3 (a score of 3 for detection at 8 hours) and the “hydrolysis score” value [2] was 3 (a score of 3 for detection at 8 hours).
With Ac-GASRHDKFL-NH2 [SRHD] the “hydrolysis score” value [1] was 0 (a score of 0 if no trace of the product of hydrolysis was seen after 8 hours of incubation) and the “hydrolysis score” value [2] was 0 (a score of 0 if no trace of the product of hydrolysis was seen after 8 hours of incubation).
In the case of Ac-GATHHLKFL-NH2 [THHL], the “hydrolysis score” value [3] is reported as 3 (a score of 3 for detection at 8 hours) and the “hydrolysis score” value [4] is reported as 12 (a score of 12, if it was seen to be partially hydrolysed at 2 hours).
With Ac-GATKHYKFL-NH2 [TKHY] the “hydrolysis score” value [3] was 3 (a score of 3 for detection at 8 hours) and the “hydrolysis score” value [4] was 6 (a score of 6 for detection at 4 hours).
In the case of Ac-GATTHMKFL-NH2 [TTHM], the “hydrolysis score” value [3] is reported as 0 (a score of 0 if no trace of the product of hydrolysis was seen after 8 hours of incubation) and the “hydrolysis score” value [4] is reported as 0 (a score of 0 if no trace of the product of hydrolysis was seen after 8 hours of incubation).
For Ac-GASGHDKFL-NH2 [SGHD], the “hydrolysis score” value [1] was 0 (a score of 0 if no trace of the product of hydrolysis was seen after 8 hours of incubation) and the “hydrolysis score” value [2] was 0 (a score of 0 if no trace of the product of hydrolysis was seen after 8 hours of incubation).
For Ac-GASGHIKFL-NH2 [SGHI], the “hydrolysis score” value [1] was 0 (a score of 0 if no trace of the product of hydrolysis was seen after 8 hours of incubation) and the “hydrolysis score” value [2] was 3 (a score of 3 for detection at 8 hours).
For Ac-GASAHIKFL-NH2 [SAHI], the “hydrolysis score” value [1] was 0 (a score of 0 if no trace of the product of hydrolysis was seen after 8 hours of incubation) and the “hydrolysis score” value [2] was 4 (a score of 4 for detection at 6 hours).
With Ac-GASHHDKFL-NH2 [SHHD] the “hydrolysis score” value [1] was 0 (a score of 0 if no trace of the product of hydrolysis was seen after 8 hours of incubation) and the “hydrolysis score” value [2] was 0 (a score of 0 if no trace of the product of hydrolysis was seen after 8 hours of incubation).
With Ac-GATYHVKFL-NH2 [TYHV] the “hydrolysis score” value [3] was 0 (a score of 0 if no trace of the product of hydrolysis was seen after 8 hours of incubation) and the “hydrolysis score” value [4] was 0 (a score of 0 if no trace of the product of hydrolysis was seen after 8 hours of incubation).
